This is an account of results in publication PMC11514582, “Leveraging the Aggregated Protein Dye YAT2150 for Malaria Chemotherapy” (Pharmaceutics, 2024).

Values after ≈ are worked out from the molar mass of the structure shown. Read-outs that look alike come from different tables or passages of the source.

One series deals with HUVEC. To be noted: cited from earlier work.
The subject of series [1] is MCF7 human breast adenocarcinoma. To be noted: cited from earlier work.
The conditions of series [2]: cited from earlier work.
Series [3] in a line: Bidirectional permeability in Caco-2 cell monolayer. To be noted: human. A general note: Caco-2 monolayers are a common model of the intestinal barrier.
In series [4] the test system is P. falciparum asexual blood stages. To be noted: cited from earlier work.
In series [5] the test system is P. berghei ookinete development. Put plainly: Ex vivo gametocyte-to-ookinete transition inhibition (ookinete maturation) assay. To be noted: up to a concentration of 2 µM. In kind it is cell-based, Plasmodium berghei. As to the method: Eight days before ookinete production, 100 µL of a red blood cell (RBC) pellet containing the Plasmodium berghei circumsporozoite protein and thrombospondin-related adhesive protein (TRAP)-related protein (CTRP)-green fluorescent protein (GFP) strain (CTRP-GFP, which expresses GFP when reaching ookinete stage, kindly provided by Inga Siden-Kiamos) in cryopreservation solution (RBC pellet:RPMI:30% glycerol in water, 1:1:2) was administered intraperitoneally (i.p.) to a BALB/c mouse (Charles River Laboratories, Wilmington, MA, USA). […] The effect of drugs on gametocyte-to-ookinete conversion was assessed in three independent replicas by plating 120 µL of each culture treated with serial dilutions of the compounds in 96-well plates and incubated for 24 h at 21 °C with orbital shaking at 50 rpm (modified from). Finally, samples diluted 1:100 in PBS were analyzed in an LSRFortessa flow cytometer (BD Biosciences, Franklin Lakes, NJ, USA) set up with the 4 lasers, 20 parameters standard configuration. The GFP positive cell population was counted (λexcitation: 488 nm; λemission: 525/40 nm) using BD FACSDiva software 6.1.3 (BD Biosciences) for data collection and Flowing Software 2.5.1 (Turku Center for Biotechnology, Turku, Finland) for analysis.

For a further series, the target named is T1, CYP1A2 (Homo sapiens, UniProt P05177).
T1 sequence (P05177 1-516): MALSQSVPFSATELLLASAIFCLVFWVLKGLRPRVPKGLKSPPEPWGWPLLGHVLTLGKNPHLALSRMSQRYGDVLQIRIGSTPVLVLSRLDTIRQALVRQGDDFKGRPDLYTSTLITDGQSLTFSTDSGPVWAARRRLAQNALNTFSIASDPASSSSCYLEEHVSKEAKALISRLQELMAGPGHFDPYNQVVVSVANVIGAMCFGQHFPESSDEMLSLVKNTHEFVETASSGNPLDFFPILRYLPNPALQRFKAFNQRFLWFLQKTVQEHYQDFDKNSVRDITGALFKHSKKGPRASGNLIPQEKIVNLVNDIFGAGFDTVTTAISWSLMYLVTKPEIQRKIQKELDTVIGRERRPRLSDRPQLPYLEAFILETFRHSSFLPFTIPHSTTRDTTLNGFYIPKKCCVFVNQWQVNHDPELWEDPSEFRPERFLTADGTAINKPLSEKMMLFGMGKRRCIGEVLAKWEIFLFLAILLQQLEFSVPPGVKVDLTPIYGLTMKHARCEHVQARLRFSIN
Put plainly: in vitro.

Series [6] can be described thus: Human plasma protein binding (Rapid Equilibrium Dialysis). In kind it is in vitro ADME. The conditions noted are these: pH 7.2, RED, 4 h at 37 °C. The procedure: The assay was carried out by Rapid Equilibrium Dialysis (RED). The compounds were dissolved at 5 μM in human plasma and added to the corresponding insert of the RED device (Thermo Fisher Scientific, Inc., Waltham, MA, USA), and dialysis was performed for 4 h at 37 °C in […], 25 mM tris-HCl, pH 7.2 (Tris BupH^TM, Thermo Fisher Scientific, Inc.). Then, 50-µL aliquots from each chamber were transferred to empty vials, to which 50 µL of dialysis buffer was added. As control, 50 µL of plasma was mixed with 50 µL of buffer. Three hundred µL of acetonitrile was added to all the samples, which were analyzed by ultra-performance liquid chromatography with tandem mass spectrometry as previously described.

For series [7] the following is noted: human, hepatocytes.
The next series deals with CYP2D6 (Homo sapiens, UniProt P10635). Nature of the series: Cytochrome inhibition assay CYP2D6.
CYP2D6, sequence (P10635 whole entry): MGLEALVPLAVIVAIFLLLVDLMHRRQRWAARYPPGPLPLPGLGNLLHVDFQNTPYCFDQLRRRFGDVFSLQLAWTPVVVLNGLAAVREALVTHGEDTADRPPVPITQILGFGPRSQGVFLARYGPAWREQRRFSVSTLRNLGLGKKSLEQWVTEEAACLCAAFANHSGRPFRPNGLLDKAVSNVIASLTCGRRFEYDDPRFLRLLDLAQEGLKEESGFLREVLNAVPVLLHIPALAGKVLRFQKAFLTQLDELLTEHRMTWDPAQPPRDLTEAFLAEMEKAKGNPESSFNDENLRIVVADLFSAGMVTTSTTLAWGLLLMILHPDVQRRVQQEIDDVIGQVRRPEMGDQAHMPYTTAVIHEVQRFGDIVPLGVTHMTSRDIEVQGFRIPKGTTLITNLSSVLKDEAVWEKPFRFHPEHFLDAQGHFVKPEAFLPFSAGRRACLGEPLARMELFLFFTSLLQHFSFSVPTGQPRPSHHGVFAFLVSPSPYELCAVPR
The target in another series is CYP2C9 (Homo sapiens, UniProt P11712). Put plainly: in vitro.
CYP2C9, sequence (P11712 whole entry): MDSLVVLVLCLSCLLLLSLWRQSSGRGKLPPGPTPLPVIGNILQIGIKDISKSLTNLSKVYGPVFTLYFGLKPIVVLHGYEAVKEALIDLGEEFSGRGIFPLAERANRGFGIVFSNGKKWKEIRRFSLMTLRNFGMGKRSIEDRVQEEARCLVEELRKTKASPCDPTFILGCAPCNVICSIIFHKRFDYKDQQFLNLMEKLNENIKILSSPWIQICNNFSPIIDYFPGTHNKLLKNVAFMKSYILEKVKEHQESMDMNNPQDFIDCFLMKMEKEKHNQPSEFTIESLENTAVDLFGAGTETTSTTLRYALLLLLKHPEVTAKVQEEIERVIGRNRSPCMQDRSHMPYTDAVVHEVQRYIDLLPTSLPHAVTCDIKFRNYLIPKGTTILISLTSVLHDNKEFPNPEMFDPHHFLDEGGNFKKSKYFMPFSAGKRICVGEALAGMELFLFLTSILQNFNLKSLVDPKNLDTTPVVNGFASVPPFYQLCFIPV
The test system of series [8] is P. falciparum asexual blood stages. Nature of the series: microbe, parasite or virus in culture. The conditions noted are these: Plasmodium falciparum.
Description: The asexual blood stages of P. falciparum parasites of the 3D7 strain (Malaria Research and Reference Reagent Resource Center, Manassas, VA, USA) were cultured in group B human RBCs at 3% hematocrit, which was kept throughout the experiments, and incubated in RPMIc. Parasites were maintained at 37 °C under an atmosphere of 5% O2, 5% CO2, and 90% N2. […] The parasites were then cultured under standard conditions for 48 h, allowing for a complete replication cycle. After the incubation period, 3 µL of culture from each well was mixed with 197 µL of PBS containing 0.1 µM Syto 11 (Thermo Fisher Scientific, Inc.) to obtain a final concentration of 1 × 10^6 to 10 × 10^6 cells/mL. Parasitemia levels were measured using an LSRFortessa flow cytometer equipped with a standard configuration of four lasers and 20 parameters. Single-cell populations were identified on a forward-side scatter plot. […] The inhibition data were then transformed using sigmoidal fitting to determine IC50.
For stage arrest assays, P. falciparum cultures were tightly synchronized in schizont stages by repeated treatment with 70% Percoll (GE Healthcare, Chicago, IL, USA) [26, 27]. […] Pictures were taken with a Nikon Eclipse 50i microscope equipped with a DS-Fi1 camera (Nikon Corporation, Tokyo, Japan).
Series [9] deals with protein aggregation in P. falciparum cultures. Put plainly: ThT protein aggregation assay in P. falciparum cultures. In kind it is cell-based, Plasmodium falciparum. To be noted: treated for 4 h at the IC50.
Description: After this incubation, 9 mL of culture was removed and subjected to a second Percoll treatment to pellet the parasitized red blood cells, which were resuspended in 50 μL of lysis buffer, consisting of 4.5 mg/mL NaCl in H2O supplemented with 1× cOmplete^TM protease inhibitor cocktail (Roche, Basel, Switzerland), and treated as described elsewhere [13]. […] Only those samples with parasitemias between 30 and 70% relative to the control were considered for ThT analysis.
For series [10], the system named is liver stages of P. berghei in Huh7. The conditions noted are these: read-out: IC50 against liver stages of P. berghei; cited from earlier work.
Series [11] deals with P. falciparum gametocytes. To be noted: cited from earlier work.
Setting [12] is: 3D7, read-out: in vitro IC50 as determined in our experimental setting.

Turning to `N.N.[Cl][Pt][Cl]` [Cisplatin], the figures for the CC50 (in the series with HUVEC; in [1]) were 2.35 ± 0.04 µM and 16.7 µM, respectively.

Turning to `COc1cc2c(c(OC)c1OC)-c1ccc(OC)c(=O)cc1[C@@H](NC(C)=O)CC2` [Colchicine], in series [2] (ref 24 (supplement list)), the “Papp AB reported” value was 13 nm/s and the “Papp BA reported” value is given as 54 nm/s. Further, in series [3] (Caco-2), the Papp (as a rule, the rate of passage across a membrane or cell layer, normalised by area and donor concentration) was 2.6 ± 0.2 nm/s; the Papp B→A (usually the apparent permeability from the basolateral to the apical side of a cell layer) stood at 89.8 ± 4.7 nm/s. Besides, in series [3] (Caco-2, Transport through Caco-2 Efflux ratio, reference compounds, tested in parallel), the efflux ratio (usually the permeability from basolateral to apical divided by that in the opposite direction, in the common usage) came out at 35.3 ± 3. The efflux ratio in series [3] (Caco-2, efflux ratios of reference compounds, as quoted in text from Supplementary Table S2) amounted to 33.

With `COc1cc2c(cc1OC)C(=O)C(CC1CCN(CCCNc3c4c(nc5cc(Cl)ccc35)CCCC4)CC1)C2` (stereo not shown) [DONE3TCl], in series [4] (read-out: IC50 in in vitro P. falciparum asexual blood stage cultures), the IC50 was ~0.08 µM. Further, in series [5], the “effect on ookinete development” value is recorded as “much less significant effect”.

With `C[C@]12CC[C@@H]3c4ccc(OS(=O)(=O)O)cc4CC[C@H]3[C@@H]1CCC2=O` [Estrone-3-sulfate], the “Transport through Caco-2 AB (Papp), reference compounds” value was determined as 4.4 ± 0.3 nm/s and the “Transport through Caco-2 Efflux ratio, reference compounds” value worked out at 26.5±3.5. In addition, in [2] (not told), the “Papp AB reported” value is on record as 27 nm/s and the “Papp BA reported” value is reported as 175 nm/s. Moreover, for the setting “human”, the “Transport through Caco-2 BA (Papp), reference compounds” value was determined as 110.0 ± 9.4 nm/s.

Consider `Cc1nc2c([nH]1)c(=O)n(C)c(=O)n2Cc1ccco1` [Furafylline], for which the inhibition (usually the relative decrease from the control value, in per cent) at 2 µM at CYP1A2 is 61%.

For the compound `O=C1NC(=O)C(c2ccccc2)(c2ccccc2)N1` [Phenytoin], in series [6], the fraction unbound (as a rule, free concentration divided by total concentration) at 4 h, 5 μM was 0.167.

Take `COc1cc2nc(N3CCN(C(=O)c4ccco4)CC3)nc(N)c2cc1OC` [Prazosin]: the solubility (in general, the concentration that dissolves in the medium under given conditions) in “physchem” is 63.8 µM (≈ 24.5 µg/mL). For the same compound, in series [7], the “Hepatocyte stability (remaining after 2 h), reference compounds” value is 70.2%.

Consider `CC(=O)[C@H]1CC[C@H]2[C@@H]3CCC4=CC(=O)CC[C@]4(C)[C@H]3CC[C@]12C` [Progesterone], for which the solubility in the series “Solubility in PBS” turned out to be 8 µM (≈ 2.52 µg/mL).

At CYP2D6, `C=C[C@H]1C[N@@]2CC[C@H]1C[C@@H]2[C@@H](O)c1ccnc2ccc(OC)cc12` [Quinidine] yielded an inhibition at 0.0073 µM of 69%.

In turn, `Nc1ccc(S(=O)(=O)Nc2ccnn2-c2ccccc2)cc1` [Sulfaphenazole] showed an inhibition at 0.37 µM on CYP2C9 of 43%.

Regarding `C[C@]12CC[C@H]3[C@@H](CCC4=CC(=O)CC[C@@]43C)[C@@H]1CC[C@@H]2O` [Testosterone], in the series “Microsomal stability” (human, microsomes), the half-life (usually the time needed for the level to fall by half in the phase considered) was found to be 15.3 min and the microsomal CLint (commonly the capacity of the preparation to metabolise the compound, expressed as a volume cleared per time) was 55.6 µL/min/mg. In addition, the “Microsomal stability (remaining after 1 h), reference compound” value in the series “Microsomal stability” (tested in parallel) turned out to be 6.5%.

For `C[C@@H]1CC[C@H]2[C@@H](C)C(=O)O[C@@H]3O[C@@]4(C)CC[C@@H]1[C@]32OO4` [artemisinin], the IC50 in series [8] (setting [12]) stood at 0.0108 µM. In addition, the “effect on protein aggregation (ThT fluorescence)” value (“effect on protein aggregation” below) in [9] was “did not have an observable effect”.

On to `O=C1C(O)=C([C@H]2CC[C@H](c3ccc(Cl)cc3)CC2)C(=O)c2ccccc21` [atovaquone], for which, in series [8] (setting [12]), the IC50 was determined as 0.001 µM. In series [9], the “effect on protein aggregation” value is “did not have an observable effect”.

As for `CCN(CC)CCCC(C)Nc1ccnc2cc(Cl)ccc12` (stereo not shown) [chloroquine], the IC50 in [8] (read-out: in vitro IC50 as determined in our experimental setting) is 0.007 µM; in [4] (Table S2, ref 10 (supplement list), read-out: IC50 P. falciparum (3D7) blood stages, reference compound) it was 0.0297 ± 0.006 µM. The “effect on protein aggregation” value in series [9] was “reduce protein aggregation”.

Regarding `COc1cc(NC(C)CCCN)c2ncccc2c1` (stereo not shown) [primaquine], the IC50 was 3 µM in series [8] (setting [12]); ~10 µM in series [10]; 18.9 ± 2 µM in series [11] (Table S2, ref 10 (supplement list), read-out: IC50 P. falciparum early/stage V gametocytes, reference compound); ~20 µM in series [11] (stage IV-V gametocytes, read-out: IC50 for P. falciparum gametocytes (primaquine)). Further, the “effect on protein aggregation” value in series [9] was “reduce protein aggregation”.
